Assay results from ChEMBL document CHEMBL1201862, “PubChem BioAssay data set” (2004).
Where a name gives a salt, the structure may show the parent alone.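 How tested: cells in 96-well plates exposed to compound for 48 hours at five concentrations. Abbreviation: GI50, concentration required for 50% inhibition of growth.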 Active and inactive are the calls of the source. No stated cut-off is given here; in the data, active = GI50 up to about 1.1 µM and inactive = higher.

What was measured:
Experiment in all cases: DTP human tumour cell line panel, 48 h
CAKI-1 = test system: CAKI-1
CCRF-CEM = test system: CCRF-CEM
DU-145 = test system: DU-145
HCT-116 = test system: HCT-116
HL-60 = test system: HL-60
HOP-62 = test system: HOP-62
K562 = test system: K562
M14 = test system: M14
MDA-N = test system: MDA-N
NCI-H23 = test system: NCI-H23
OVCAR-5 = test system: OVCAR-5
OVCAR-8 = test system: OVCAR-8
SF-268 = test system: SF-268
SF-539 = test system: SF-539
SK-MEL-28 = test system: SK-MEL-28
SK-MEL-2 = test system: SK-MEL-2
SK-MEL-5 = test system: SK-MEL-5
SNB-75 = test system: SNB-75
TK-10 = test system: TK-10

Measured: GI50

O=C(O)c1nn(-c2ccc(Cl)cc2)c2c1C(=O)c1ccccc1C2=O
active: CCRF-CEM < 0.01 µM
inactive: CAKI-1 > 100 µM | DU-145 > 100 µM | HCT-116 > 100 µM | HL-60 > 100 µM | HOP-62 > 100 µM | K562 > 100 µM | M14 20 µM | MDA-N > 100 µM | NCI-H23 37.5 µM | OVCAR-5 > 100 µM | OVCAR-8 > 100 µM | SF-268 > 100 µM | SF-539 30.2 µM | SK-MEL-28 > 100 µM | SK-MEL-2 > 100 µM | SK-MEL-5 20.5 µM | SNB-75 22.8 µM | TK-10 > 100 µM

C[n+]1c(-c2ccc(/C=N/NC(=O)C(=O)N/N=C/c3ccc(-c4cn5ccccc5[n+]4C)cc3)cc2)cn2ccccc21
inactive: CAKI-1 > 100 µM | CCRF-CEM > 100 µM | DU-145 > 100 µM | HL-60 > 100 µM | HOP-62 > 100 µM | K562 > 100 µM | M14 > 100 µM | MDA-N > 100 µM | NCI-H23 > 100 µM | OVCAR-5 > 100 µM | OVCAR-8 > 100 µM | SF-539 > 100 µM | SK-MEL-2 > 100 µM | SK-MEL-5 91 µM | SNB-75 > 100 µM | TK-10 56.6 µM

CN1CCC(CN2c3ccccc3Sc3ccccc32)C1 (stereo unspecified) [METHDILAZINE HYDROCHLORIDE]
inactive: CAKI-1 14.7 µM | CCRF-CEM 15.2 µM | DU-145 17.8 µM | HCT-116 13.9 µM | HL-60 14.7 µM | HOP-62 15 µM | K562 12.3 µM | M14 10.5 µM | MDA-N 14.1 µM | NCI-H23 20.3 µM | OVCAR-5 16.7 µM | OVCAR-8 16.5 µM | SF-268 15.3 µM | SF-539 16.8 µM | SK-MEL-28 6.44 µM | SK-MEL-2 15.7 µM | SK-MEL-5 13.7 µM | SNB-75 1.79 µM | TK-10 17.6 µM

Cc1ncc([N+](=O)[O-])n1CCNCCCCn1ccnc1[N+](=O)[O-]
inactive: CAKI-1 > 100 µM | CCRF-CEM > 100 µM | DU-145 > 100 µM | HCT-116 > 100 µM | HL-60 > 100 µM | HOP-62 > 100 µM | K562 > 100 µM | M14 > 100 µM | MDA-N > 100 µM | NCI-H23 > 100 µM | OVCAR-5 > 100 µM | OVCAR-8 > 100 µM | SF-268 > 100 µM | SF-539 > 100 µM | SK-MEL-28 > 100 µM | SK-MEL-2 > 100 µM | SK-MEL-5 > 100 µM | SNB-75 > 100 µM | TK-10 > 100 µM

CC(=O)SC(C[N+](=O)[O-])c1ccccc1 (stereo unspecified)
inactive: CAKI-1 14 µM | CCRF-CEM 2.84 µM | DU-145 6.37 µM | HCT-116 1.6 µM | HL-60 3.87 µM | HOP-62 15.3 µM | K562 2.41 µM | M14 3.84 µM | MDA-N 2.32 µM | NCI-H23 12 µM | OVCAR-5 3.8 µM | OVCAR-8 11.8 µM | SF-268 7.98 µM | SF-539 2.27 µM | SK-MEL-28 5.55 µM | SK-MEL-2 19.8 µM | SK-MEL-5 2.68 µM | SNB-75 2.29 µM | TK-10 7.26 µM

COc1ccc2c(c1)c1c3c(ccc4ncn2c43)N(CCN(C)C)CCN=1
inactive: CAKI-1 1.71 µM | TK-10 1.49 µM
active: CCRF-CEM 0.127 µM | DU-145 0.942 µM | HCT-116 0.298 µM | HL-60 0.333 µM | HOP-62 0.362 µM | K562 0.0488 µM | M14 0.895 µM | MDA-N 0.438 µM | NCI-H23 0.968 µM | OVCAR-5 0.676 µM | OVCAR-8 0.284 µM | SF-268 0.836 µM | SF-539 0.362 µM | SK-MEL-28 0.897 µM | SK-MEL-2 1.03 µM | SK-MEL-5 0.91 µM | SNB-75 0.764 µM

CC(=O)OCC1OC(OCCCOP(=O)(OCCC#N)OCC2OC(n3cnc4c(N)ncnc43)C(OC(=O)c3ccccc3)C2OC(=O)c2ccccc2)C(OC(C)=O)C(OC(C)=O)C1OC(C)=O (stereo unspecified)
inactive: CAKI-1 > 100 µM | CCRF-CEM > 100 µM | DU-145 > 100 µM | HCT-116 > 100 µM | HL-60 > 100 µM | HOP-62 > 100 µM | K562 > 100 µM | M14 > 100 µM | MDA-N > 100 µM | NCI-H23 > 100 µM | OVCAR-5 > 100 µM | OVCAR-8 > 100 µM | SF-268 > 100 µM | SF-539 > 100 µM | SK-MEL-28 > 100 µM | SK-MEL-2 > 100 µM | SK-MEL-5 > 100 µM | SNB-75 > 75 µM | TK-10 > 100 µM

O=C(O)CSSCC(=O)O
inactive: CAKI-1 > 100 µM | CCRF-CEM > 100 µM | DU-145 > 100 µM | HCT-116 > 100 µM | HL-60 > 100 µM | HOP-62 > 100 µM | K562 > 100 µM | M14 > 100 µM | MDA-N > 100 µM | NCI-H23 > 100 µM | OVCAR-5 > 100 µM | OVCAR-8 > 100 µM | SF-268 > 100 µM | SF-539 > 100 µM | SK-MEL-28 > 100 µM | SK-MEL-2 > 100 µM | SK-MEL-5 > 100 µM | SNB-75 > 100 µM | TK-10 > 100 µM

CC(C)CC1NC(=O)CCC(NC(=O)C(Cc2ccc(O)cc2)NC(=O)OCc2ccccc2)C(=O)NC(Cc2ccccc2)C(=O)NC(Cc2ccccc2)NC1=O (stereo unspecified)
inactive: CAKI-1 > 100 µM | CCRF-CEM > 100 µM | DU-145 > 100 µM | HCT-116 > 100 µM | HL-60 > 100 µM | HOP-62 > 100 µM | K562 > 100 µM | M14 > 100 µM | MDA-N > 100 µM | NCI-H23 > 100 µM | OVCAR-5 > 100 µM | OVCAR-8 > 100 µM | SF-268 > 100 µM | SF-539 > 100 µM | SK-MEL-28 > 100 µM | SK-MEL-2 > 100 µM | SK-MEL-5 > 100 µM | SNB-75 > 100 µM | TK-10 > 100 µM

CS(=O)(=O)N1CC(CCl)c2ccc([N+](=O)[O-])cc21 (stereo unspecified)
inactive: CAKI-1 > 100 µM | CCRF-CEM > 100 µM | DU-145 > 100 µM | HCT-116 > 100 µM | HL-60 > 100 µM | HOP-62 > 100 µM | K562 > 100 µM | M14 > 100 µM | MDA-N > 100 µM | NCI-H23 > 100 µM | OVCAR-5 > 100 µM | OVCAR-8 > 100 µM | SF-268 > 100 µM | SF-539 > 100 µM | SK-MEL-28 > 100 µM | SK-MEL-2 > 100 µM | SK-MEL-5 > 100 µM | TK-10 > 100 µM
active: SNB-75 < 0.01 µM

O=C1C(CN2CCCC2)CCC1CN1CCCC1 (stereo unspecified)
inactive: CAKI-1 11 µM | CCRF-CEM 3.52 µM | DU-145 97.3 µM | HCT-116 17.5 µM | HL-60 2.42 µM | HOP-62 > 100 µM | K562 2.9 µM | M14 15.8 µM | MDA-N 16 µM | NCI-H23 20.7 µM | OVCAR-5 > 41.3 µM | OVCAR-8 18.3 µM | SF-268 20.8 µM | SF-539 19.5 µM | SK-MEL-28 18.7 µM | SK-MEL-2 21.2 µM | SK-MEL-5 17.3 µM | SNB-75 17.9 µM | TK-10 18.3 µM

Cc1ccc2nc(/C=N/c3ccccc3Cl)cc(C)c2c1
inactive: CAKI-1 30.8 µM | CCRF-CEM 4.89 µM | DU-145 46.7 µM | HCT-116 4.21 µM | HL-60 2.73 µM | HOP-62 38.8 µM | K562 19.1 µM | M14 13.2 µM | MDA-N 5.57 µM | NCI-H23 22.2 µM | OVCAR-5 42.3 µM | OVCAR-8 15.2 µM | SF-268 16 µM | SF-539 16.5 µM | SK-MEL-28 18.9 µM | SK-MEL-2 40.2 µM | SK-MEL-5 14.9 µM | SNB-75 19.9 µM | TK-10 30.3 µM

CC(=O)c1cc2c(s1)C(=O)c1ccccc1C2=O
active: M14 0.557 µM | NCI-H23 0.457 µM | SK-MEL-5 0.26 µM
inactive: CAKI-1 9.53 µM | CCRF-CEM 1.96 µM | DU-145 1.26 µM | HCT-116 1.68 µM | HL-60 2.13 µM | HOP-62 2.44 µM | K562 2.09 µM | MDA-N 1.63 µM | OVCAR-5 5.25 µM | OVCAR-8 1.74 µM | SF-268 2.73 µM | SF-539 1.44 µM | SK-MEL-28 8.05 µM | SK-MEL-2 4.31 µM | SNB-75 2.4 µM | TK-10 5.47 µM

O=C1c2cc(Cc3ccccc3)c(=O)c(Cc3ccccc3)cc2C(=O)c2cc(Cc3ccccc3)c(=O)c(Cc3ccccc3)cc21
inactive: CAKI-1 > 100 µM | CCRF-CEM 74.5 µM | DU-145 > 100 µM | HCT-116 > 100 µM | HL-60 > 100 µM | HOP-62 > 100 µM | K562 89.9 µM | M14 > 100 µM | MDA-N > 100 µM | NCI-H23 > 100 µM | OVCAR-5 > 100 µM | OVCAR-8 > 100 µM | SF-268 > 100 µM | SF-539 > 100 µM | SK-MEL-28 > 100 µM | SK-MEL-2 > 100 µM | SK-MEL-5 > 100 µM | SNB-75 > 100 µM | TK-10 > 100 µM

CNC(=O)NCCN1CC2CCC(CC2)C1
inactive: CAKI-1 > 10 µM | CCRF-CEM > 10 µM | DU-145 > 10 µM | HCT-116 > 10 µM | HL-60 > 10 µM | HOP-62 > 10 µM | K562 > 10 µM | M14 > 10 µM | MDA-N > 10 µM | NCI-H23 > 10 µM | OVCAR-8 > 10 µM | SF-268 > 10 µM | SF-539 > 10 µM | SK-MEL-28 > 10 µM | SK-MEL-2 > 10 µM | SK-MEL-5 > 10 µM | SNB-75 > 10 µM | TK-10 > 10 µM
